Assay results reported in US8017646B2, “Histamine H3-receptor ligands and their therapeutic application” (Bioprojet, priority 2005, dated 2011).
Where a name gives a salt, the structure may show the parent alone. Read-outs that look alike come from different tables or passages of the source.

Key:
CYP2D6 = CYP2D6 (Homo sapiens, UniProt P10635); assay: Cytochrome inhibition, fluorometric assay, CYP2D6; format: biochemical
Description: (§1) The ability of drug in human to inhibit the catalytic activity of cytochrome P-450 isoforms was assayed using microtiter plate-based, fluorometric assays for the activities of the five human major CYP forms. Inhibition potential was determined in vitro after incubation of fluorescent model substrates over various incubation time with human recombinant cytochrome isoforms in the absence or in presence of increasing concentrations of test molecules (from 1 nM to 100 μM), in comparison with specific CYP isoform inhibitors. Data were expressed as quantitative inhibition parameters [inhibitor concentration that produces 50% inhibition (IC50 value)].
Incubation of drug was carried out at 37° C.±0.5° C. under agitation in the presence of human recombinant cytochrome P-450 isoforms and a NADPH generating system. The incubation conditions for each cytochrome isoform were as follow: […]

CYP3A4 = CYP3A4 (Homo sapiens, UniProt P08684); assay: Cytochrome inhibition, fluorometric assay, CYP3A4; format: biochemical; conditions: human recombinant CYP3A4, substrate BFC; read-out: cytochrome inhibition (IC50, concentrations for 50% inhibition) CYP3A4
Sequence of CYP3A4 (P08684 whole entry, canonical isoform): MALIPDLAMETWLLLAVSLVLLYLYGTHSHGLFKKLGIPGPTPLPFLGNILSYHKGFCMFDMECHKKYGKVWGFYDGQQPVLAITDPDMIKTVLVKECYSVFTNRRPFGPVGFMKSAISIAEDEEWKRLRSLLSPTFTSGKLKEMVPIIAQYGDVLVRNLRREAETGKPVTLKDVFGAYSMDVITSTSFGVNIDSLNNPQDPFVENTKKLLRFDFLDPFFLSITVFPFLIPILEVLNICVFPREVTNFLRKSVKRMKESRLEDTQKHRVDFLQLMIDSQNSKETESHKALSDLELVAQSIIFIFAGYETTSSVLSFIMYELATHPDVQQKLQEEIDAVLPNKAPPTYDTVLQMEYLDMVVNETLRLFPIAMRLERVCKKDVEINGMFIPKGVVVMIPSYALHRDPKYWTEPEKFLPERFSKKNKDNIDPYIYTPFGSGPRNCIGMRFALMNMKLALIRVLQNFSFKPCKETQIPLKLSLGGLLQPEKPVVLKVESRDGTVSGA
Description: as §1, with “value)]. Incubation of drug was carried out at 37° C.±0.5° C. under agitation in the presence of human recombinant cytochrome P-450 isoforms and a NADPH generating system. The incubation conditions for each cytochrome isoform were as follow: [table]” for “value)].”

[1] = target: human histamine H3 receptors (Homo sapiens, UniProt Q9Y5N1); assay: H3 binding ([125I]iodoproxyfan displacement); conditions: for Ki: membranes expressing human histamine H3 receptors, [125I]iodoproxyfan
Sequence of human histamine H3 receptors (Q9Y5N1 whole entry): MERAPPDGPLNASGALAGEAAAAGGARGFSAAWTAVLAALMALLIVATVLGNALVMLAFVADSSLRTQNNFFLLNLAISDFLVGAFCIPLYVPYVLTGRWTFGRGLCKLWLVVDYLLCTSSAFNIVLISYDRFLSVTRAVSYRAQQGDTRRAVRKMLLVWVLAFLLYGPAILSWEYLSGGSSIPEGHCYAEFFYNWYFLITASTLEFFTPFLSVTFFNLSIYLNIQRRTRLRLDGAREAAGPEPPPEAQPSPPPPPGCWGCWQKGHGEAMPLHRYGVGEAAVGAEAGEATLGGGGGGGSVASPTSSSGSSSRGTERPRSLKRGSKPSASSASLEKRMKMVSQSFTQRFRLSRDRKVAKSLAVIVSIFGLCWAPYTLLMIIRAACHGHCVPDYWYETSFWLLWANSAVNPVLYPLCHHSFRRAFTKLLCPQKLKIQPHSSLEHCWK
Description: Membranes expressing human histamine H3 receptors were incubated 1 hour at room temperature in binding buffer containing 50 mM Na2HPO4/KH2PO4 pH 7.5 in a final volume of 200 μl. […] Amersham Pharmacia Biotech) concentrations ranged between 20 and 40 pM. Non-specific binding was determined in the presence of 1 μM Imetit. The reaction was stopped by rapid filtration through GF/B filters (pre-soaked for 2 hours with 0.3% polyethyleneimine) followed by 3 ice cold binding buffer washes. The filter-bound radioactivity was measured in a liquid scintillation counter with 50 μl of scintillation fluid.

[2] = human recombinant CYP2D6, substrate AMMC, read-out: cytochrome inhibition (IC50, concentrations for 50% inhibition) CYP2D6

Sequence of CYP2D6 (P10635 whole entry, canonical isoform): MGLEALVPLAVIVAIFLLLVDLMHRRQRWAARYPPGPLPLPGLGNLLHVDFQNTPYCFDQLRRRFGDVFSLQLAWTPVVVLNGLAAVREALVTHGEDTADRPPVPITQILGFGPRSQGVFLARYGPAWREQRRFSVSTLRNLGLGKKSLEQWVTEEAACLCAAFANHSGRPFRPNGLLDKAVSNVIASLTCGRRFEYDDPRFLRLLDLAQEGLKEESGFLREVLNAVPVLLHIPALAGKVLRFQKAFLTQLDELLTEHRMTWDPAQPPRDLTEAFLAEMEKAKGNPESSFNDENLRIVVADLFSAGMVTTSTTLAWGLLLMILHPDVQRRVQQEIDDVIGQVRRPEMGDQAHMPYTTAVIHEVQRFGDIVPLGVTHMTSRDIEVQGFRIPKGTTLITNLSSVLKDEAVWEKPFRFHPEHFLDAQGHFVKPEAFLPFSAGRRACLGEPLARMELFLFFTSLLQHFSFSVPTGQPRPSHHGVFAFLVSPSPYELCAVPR

Compound | IC50 (CYP2D6; [2]) | IC50 (CYP3A4) | Ki [1] | Kd ([1]; radioligand at human H3 receptor membranes, read-out: Kd (hH3 binding)) | melting point | IC50 (CYP2D6; comparative compound disclosed in WO 00/06254, read-out: cytochrome inhibition (IC50) CYP2D6)
COc1cc(/C=C/COCCCN2CCCC2)ccc1F [Example 8, trans-1-{3-[3-(4-fluoro-3-methoxyphenyl)allyloxy]propyl}pyrrolidine, oxalate] | > 1 µM | > 10 µM |  |  |  | 
COc1cc(CCCOCCCN2CCCCC2)ccc1O [Example 6, 1-{3-[3-(4-hydroxy-3-methoxyphenyl)propoxy]propyl}piperidine, oxalate] | > 1 µM | > 10 µM |  |  |  | 
COc1cc(CCCOCCCN2CCCC2)ccc1F [Example 9, 1-{3-[3-(4-fluoro-3-methoxyphenyl)propoxy]propyl}pyrrolidine, oxalate] | > 100 µM | > 100 µM | 0.0017 µM |  |  | 
C(=C\c1ccc2c(c1)OCCO2)/COCCCN1CCCCC1.O=C(O)C(=O)O [Example 13, 1-{3-[3-(2,3-dihydrobenzo[1,4]dioxin-6-yl)allyl]oxy}propyl)piperidine, oxalate] | > 10 µM | > 10 µM |  |  |  | 
COc1cc(F)ccc1CCCOCCCN1CCCC1 [Example 11, 1-{3-[3-(4-fluoro-2-methoxyphenyl)propoxy]propyl}pyrrolidine, oxalate] | 18 µM | 23 µM | 0.00038 µM |  |  | 
COc1ccc(CCCOCCCN2CCCC2)cc1OC [Example 1, 1-{3-[3-(3,4-dimethoxyphenyl)propoxy]propyl}pyrrolidine, oxalate] | > 10 µM | > 10 µM |  |  |  | 
COc1ccc(CCCOCCCN2CCCCC2)cc1OC [Example 3, 1-{3-[3-(3,4-dimethoxyphenyl)propoxy]propyl}piperidine, oxalate] | > 10 µM | > 10 µM |  |  |  | 
Cc1cc(CCCOCCCN2CCCC2)ccc1F [Example 10, 1-{3-[3-(4-fluoro-3-methylphenyl)propoxy]propyl}pyrrolidine, oxalate] | > 1 µM | > 10 µM |  |  |  | 
Ic1ccc(COCCCc2cnc[nH]2)cc1 [[^125]iodoproxyfan, reference compound] |  |  |  | 0.078 ± 0.006 nM |  | 
C(=C\c1ccc2c(c1)OCO2)/COCCCN1CCCC1 [Example 14, trans-1-{3-[3-(benzodioxol-5-yl)allyloxy]propyl}pyrrolidine, oxalate] | 4.4 µM | 10.6 µM | 0.0047 µM |  |  | 
C(=C\c1ccc2occc2c1)/COCCCN1CCCC1 [Example 12, trans-1-{3-[3-(benzofuran-5-yl)allyloxy]propyl}pyrrolidine, oxalate] | > 1 µM | > 10 µM |  |  |  | 
Fc1ccc(CCCOCCCN2CCCC2)cc1.O=C(O)C(=O)O [Example 7, 1-{3-[3-(4-fluorophenyl)propoxy]propyl}pyrrolidine, oxalate] | 81 µM | > 100 µM |  |  | 106 °C | 
C(=C\c1ccc2c(c1)OCCO2)/COCCCN1CCCCC1.O=C(O)C(=O)O [Example 13] |  |  |  |  | 120 °C | 
COc1ccc(/C=C/COCCCN2CCCCC2)cc1OC.O=C(O)C(=O)O [Example 2, trans-1-{3-[3-(3,4-dimethoxyphenyl)allyloxy]propyl}piperidine, oxalate] | > 10 µM | > 10 µM |  |  | 111 to 112 °C | 
Clc1ccc(CCCOCCCN2CCCCC2)cc1 [reference compound] |  |  |  |  |  | 0.059 µM
Cc1ccc(CCCOCCCN2CCCCC2)cc1 [Example 4, 1-{3-[3-(4-methylphenyl)propoxy]propyl}piperidine, oxalate] | > 10 µM | > 10 µM |  |  |  | 
c1ccc2cc(CCCOCCCN3CCCCC3)ccc2c1 [Example 5, 1-{3-[3-(2-naphtyl)propoxy]propyl}piperidine, oxalate] | > 1 µM | > 10 µM |  |  |  | 
